# Assay results reported in patent US12679839B2, “Cyclin-dependent kinase 7 (CDK7) non-covalent inhibitors” (JANSSEN PHARMACEUTICA NV, priority 2020, dated 2026).
# Biological target: T1, CDK7/Cyclin H/MAT-1 complex (Homo sapiens, UniProt P50613)
# T1 construct: Human CDK7 (amino acids 1-346); His6 (N); TEV protease cleavage site (N); made in house; host or cells: baculovirus-SF9 insect cells
# Assay: Absorbance kinetic assay (20 nM CDK7/Cyclin H/MAT-1 complex)
# Assay type: biochemical
# Details: for IC50: read-out: CDK7 (20 nM) pIC50 (converted)
# Procedure, shortened: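 Trimeric complex (His6-TEV CDK7 1-346, MAT1 1-309, cyclin H 1-323) from Sf9 cells, at 20 nM, phosphorylating RNA Pol II-derived CDK7/9-tide; ADP coupled via PK/LDH to NADH depletion read at 340 nm every 2 min for 8 h. Steady-state slopes gave % inhibition; IC50 from 11-point Hill fit.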
# T1 sequence (P50613 whole entry, the tested form may be a part): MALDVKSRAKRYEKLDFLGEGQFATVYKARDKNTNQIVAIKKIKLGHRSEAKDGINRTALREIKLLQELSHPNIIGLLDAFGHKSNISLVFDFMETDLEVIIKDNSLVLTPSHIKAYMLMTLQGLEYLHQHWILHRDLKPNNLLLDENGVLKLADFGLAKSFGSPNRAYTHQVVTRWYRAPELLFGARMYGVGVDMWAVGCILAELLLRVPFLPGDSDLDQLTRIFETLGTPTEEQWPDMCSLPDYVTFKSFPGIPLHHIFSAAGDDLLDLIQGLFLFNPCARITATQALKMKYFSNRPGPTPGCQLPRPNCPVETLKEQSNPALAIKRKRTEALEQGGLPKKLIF
# T1 sequence (P51946 whole entry partner, the tested form may be a part): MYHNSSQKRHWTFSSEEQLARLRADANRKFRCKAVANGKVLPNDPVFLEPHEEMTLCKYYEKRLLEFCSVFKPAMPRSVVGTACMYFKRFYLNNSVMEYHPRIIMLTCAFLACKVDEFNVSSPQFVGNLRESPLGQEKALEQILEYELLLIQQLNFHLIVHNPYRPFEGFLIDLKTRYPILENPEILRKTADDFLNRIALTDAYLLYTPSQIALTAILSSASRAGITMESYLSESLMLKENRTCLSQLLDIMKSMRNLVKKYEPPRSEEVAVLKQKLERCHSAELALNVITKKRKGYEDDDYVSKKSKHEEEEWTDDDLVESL
# T1 sequence (P51948 whole entry partner, the tested form may be a part): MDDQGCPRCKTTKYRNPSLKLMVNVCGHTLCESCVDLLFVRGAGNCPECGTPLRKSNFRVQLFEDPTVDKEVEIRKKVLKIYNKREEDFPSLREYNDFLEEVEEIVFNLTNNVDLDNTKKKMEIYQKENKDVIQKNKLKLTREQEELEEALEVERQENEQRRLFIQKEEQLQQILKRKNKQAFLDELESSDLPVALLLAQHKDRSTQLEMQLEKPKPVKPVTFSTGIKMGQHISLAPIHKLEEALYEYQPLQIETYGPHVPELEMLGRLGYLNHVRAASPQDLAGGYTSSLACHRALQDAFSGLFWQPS
smiles,measurement,value
C[C@@H]1Cc2cnc(NC[C@@H]3CCOC3)nc2CN1C(=O)[C@H]1CCN(C)C[C@@H]1c1ccccc1 [Compound 62],CDK7 (20 nM) pIC50,>8.01
C[C@@H]1Cc2cnc(NCc3cc[nH]n3)nc2CN1C(=O)[C@H]1CCN(C)C[C@@H]1c1ccccc1 [Compound 51],IC50,51.3 nM
C[C@H](Nc1ncc2c(n1)CN(C(=O)[C@H]1CCN(C)C[C@@H]1c1ccccc1)[C@H](C)C2)c1ccccn1 [Compound 20],CDK7 (20 nM) pIC50,8.01
CN1CC[C@H](C(=O)N2Cc3nc(NC4CCOCC4)ncc3C(C)(C)C2)[C@@H](c2ccccc2)C1 [Compound 193],CDK7 (20 nM) pIC50,6.75
C[C@@H]1Cc2cnc(NCc3ccsc3)nc2CN1C(=O)[C@H]1CCN(C)C[C@@H]1c1ccccc1 [Compound 48],CDK7 (20 nM) pIC50,7.59
C[C@@H]1Cc2cnc(NC3CCOCC3)nc2CN1C(=O)N1CCN(C)C[C@@H]1c1ccccc1 [Compound 204a],CDK7 (20 nM) pIC50,7.81
CO[C@H]1CC[C@H](Nc2ncc3c(n2)CN(C(=O)[C@H]2CCN(C)C[C@@H]2c2ccc(C)nc2)[C@H](C)C3)CC1 (relative stereo) [Compound 110],IC50,< 9.77 nM
"CC(C)N1CC[C@H](C(=O)N2Cc3nc(NC4CCOCC4)ncc3C[C@H]2C)[C@@H](c2cccc(Cl)c2)C1 (single isomer, unassigned) [Compound 160]",CDK7 (20 nM) pIC50,6.96
C[C@@H]1Cc2cnc(N[C@H]3CCC(=O)N(C)C3)nc2CN1C(=O)[C@H]1CCN(C)C[C@@H]1c1ccccc1 (relative stereo) [Compound 7],IC50,< 9.77 nM
Cc1ccc(CNc2ncc3c(n2)CN(C(=O)[C@H]2CCN(C)C[C@@H]2c2ccccc2)[C@H](C)C3)o1 [Compound 50],CDK7 (20 nM) pIC50,7.6
C[C@H]1Cc2cnc(NC3CCOCC3)nc2CN1C(=O)N1CCN(C)C[C@H]1c1cccc(F)c1 (relative stereo) [Compound 212],IC50,13.2 nM
C[C@@H]1Cc2cnc(NCc3ccn(C)n3)nc2CN1C(=O)[C@@H]1CCN(C)C[C@H]1c1cccc(OC(F)(F)F)c1 (relative stereo) [Compound 127],IC50,234 nM
"C[C@H]1Cc2cnc(NC3CCOCC3)cc2CN1C(=O)[C@H]1CCN(C)C[C@@H]1c1ccccc1 (single isomer, unassigned) [Compound 171a]",IC50,9.77 nM
"C[C@@H]1Cc2cnc(N[C@H](C)c3ccn(C)n3)nc2CN1C(=O)[C@H]1CCN(C)C[C@@H]1c1ccccc1 (single isomer, unassigned) [Compound 54]",IC50,12.3 nM
C[C@@H]1Cc2cnc(NCc3ccn(C)c3)nc2CN1C(=O)[C@H]1CCN(C)C[C@@H]1c1ccccc1 [Compound 60],IC50,< 9.77 nM
C[C@@H]1Cc2cnc(NCc3ccn(C)n3)nc2CN1C(=O)N1CCN(C)C[C@@H]1c1ccccc1 [Compound 213],CDK7 (20 nM) pIC50,6.8
C[C@@H]1Cc2cnc(N[C@@H](CO)c3ccccc3)nc2CN1C(=O)[C@H]1CCN(C)C[C@@H]1c1ccccc1 [Compound 71],CDK7 (20 nM) pIC50,>8.01
CCn1ccc(CNc2ncc3c(n2)CN(C(=O)[C@H]2CCN(C)C[C@@H]2c2ccccc2)[C@H](C)C3)n1 [Compound 58],CDK7 (20 nM) pIC50,>8.01
C[C@@H]1Cc2cnc(NC3CCOCC3)nc2CN1C(=O)[C@@H]1CC[C@@H](N(C)C)CN1c1ccccc1 (mixture of isomers) [Compound 167],CDK7 (20 nM) pIC50,6.25
C[C@@H]1Cc2cnc(Nc3cnn(C)c3)nc2CN1C(=O)[C@H]1CCN(C)C[C@@H]1c1ccccc1 [Compound 82],CDK7 (20 nM) pIC50,>8.01
Cc1ncc(CNc2ncc3c(n2)CN(C(=O)[C@H]2CCN(C)C[C@@H]2c2ccccc2)[C@H](C)C3)[nH]1 [Compound 52],CDK7 (20 nM) pIC50,7.97
CO[C@]1(C)CC[C@@H](Nc2ncc3c(n2)CN(C(=O)[C@H]2CCN(C)C[C@@H]2c2ccccc2)[C@H](C)C3)CC1 [Compound 10],CDK7 (20 nM) pIC50,>8.01
Cc1cn(C)nc1CNc1ncc2c(n1)CN(C(=O)[C@H]1CCN(C)C[C@@H]1c1ccccc1)[C@H](C)C2 [Compound 61],CDK7 (20 nM) pIC50,>8.01
CC(C)N1CCN(C(=O)N2Cc3nc(NC4CCOCC4)ncc3C[C@H]2C)[C@@H](c2ccccc2)C1 [Compound 206],CDK7 (20 nM) pIC50,7.79
C[C@@H]1Cc2cnc(N[C@H]3CC[C@H](O)CC3)nc2CN1C(=O)[C@H]1CCN(C)C[C@@H]1c1ccccc1 [Compound 12],CDK7 (20 nM) pIC50,>8.01
Cc1ccc([C@@H]2CN(C)CC[C@H]2C(=O)N2Cc3nc(NC4CCOCC4)ncc3C[C@H]2C)cn1 (relative stereo) [Compound 108],IC50,105 nM
CC(C)n1ccc(CNc2ncc3c(n2)CN(C(=O)[C@H]2CCN(C)C[C@@H]2c2ccccc2)[C@H](C)C3)n1 [Compound 66],CDK7 (20 nM) pIC50,>8.01
C[C@@H]1Cc2cnc(NCc3cnn(C)c3)nc2CN1C(=O)[C@H]1CCN(C)C[C@@H]1c1ccccc1 [Compound 57],CDK7 (20 nM) pIC50,6.66
CO[C@H]1CC[C@H](Nc2ncc3c(n2)CN(C(=O)[C@H]2CCN(C)C[C@@H]2c2ccccc2)[C@H](C)C3)CC1 [Compound 37],CDK7 (20 nM) pIC50,8.01
C[C@@H]1Cc2cnc(N[C@H](CO)c3ccccc3)nc2CN1C(=O)[C@H]1CCN(C)C[C@@H]1c1ccccc1 [Compound 72],CDK7 (20 nM) pIC50,8.01
Cc1cc(CNc2ncc3c(n2)CN(C(=O)[C@H]2CCN(C)C[C@@H]2c2ccccc2)[C@H](C)C3)nn1C [Compound 65],CDK7 (20 nM) pIC50,7.58
CO[C@H]1CC[C@H](Nc2cc3c(cn2)C[C@H](C)N(C(=O)[C@@H]2CCN(C)C[C@H]2c2cccc(C)c2)C3)CC1 [Compound 177a],IC50,28.8 nM
Cc1cccc([C@H]2CN(C)CC[C@@H]2C(=O)N2Cc3nc(Nc4cnn(C)c4)ncc3[C@@H]3C[C@@H]32)c1 (relative stereo) [Compound 203],IC50,17 nM
C[C@@H]1Cc2cnc(NC3CCS(=O)(=O)CC3)nc2CN1C(=O)N1CCN(C)C[C@@H]1c1ccccc1 [Compound 214],CDK7 (20 nM) pIC50,7.55
[2H]C([2H])(Nc1ncc2c(n1)CN(C(=O)[C@H]1CCN(C)C[C@@H]1c1ccccc1)[C@H](C)C2)c1ccccc1 [Compound 70],IC50,< 9.77 nM
C[C@@H]1Cc2cnc(NCc3cc(C(F)F)n(C)n3)nc2CN1C(=O)[C@H]1CCN(C)C[C@@H]1c1ccccc1 [Compound 56],CDK7 (20 nM) pIC50,6.85
C[C@@H]1Cc2cnc(N[C@@H]3CCOC4(CCC4)C3)nc2CN1C(=O)[C@H]1CCN(C)C[C@@H]1c1ccccc1 (relative stereo) [Compound 8],IC50,< 9.77 nM
CO[C@H]1CC[C@H](Nc2ncc3c(n2)CN(C(=O)[C@H]2CCN(C)C[C@@H]2c2ccccc2)C2(CC2)C3)CC1 [Compound 192],CDK7 (20 nM) pIC50,6.80
CO[C@H]1CC[C@H](Nc2cc3c(cn2)C[C@H](C)N(C(=O)[C@H]2CCN(C)C[C@@H]2c2cccc(C)c2)C3)CC1 [Compound 177c],IC50,389 nM
"C[C@H](Nc1ncc2c(n1)CN(C(=O)[C@H]1CCN(C)C[C@@H]1c1ccccc1)[C@H](C)C2)c1ccn(C)n1 (single isomer, unassigned) [Compound 55]",IC50,141 nM
"C[C@@H]1Cc2cnc(NCc3ccccc3)nc2CN1C(=O)[C@H]1CCN(CC2COC2)C[C@@H]1c1ccccc1 (single isomer, unassigned) [Compound 155]",CDK7 (20 nM) pIC50,>8.01
C[C@@H]1Cc2cnc(NC[C@H]3CCOC3)nc2CN1C(=O)[C@H]1CCN(C)C[C@@H]1c1ccccc1 [Compound 53],CDK7 (20 nM) pIC50,7.39
C[C@H]1Cc2cnc(Nc3cnn(C)c3)cc2CN1C(=O)[C@H]1CCN(C)C[C@@H]1c1ccccc1 (relative stereo) [Compound 176],IC50,22.9 nM
Cc1cccc([C@H]2CN(C)CC[C@@H]2C(=O)N2Cc3nc(Nc4cnn(C)c4)ncc3C[C@H]2C)c1 (relative stereo) [Compound 126],IC50,15.5 nM
CO[C@H]1CC[C@H](Nc2ncc3c(n2)CN(C(=O)[C@H]2CCN(C)C[C@@H]2c2ccccc2)[C@H]2C[C@@H]32)CC1 [Compound 201],CDK7 (20 nM) pIC50,7.48
C[C@@H]1Cc2cnc(NC3CCN(S(=O)(=O)C4CC4)CC3)nc2CN1C(=O)N1CCN(C)C[C@@H]1c1ccccc1 [Compound 210],CDK7 (20 nM) pIC50,>7.7
C[C@@H]1Cc2cnc(NC3Cc4ccccc4C3)nc2CN1C(=O)[C@H]1CCN(C)C[C@@H]1c1ccccc1 [Compound 29],CDK7 (20 nM) pIC50,8.01
C[C@@H]1Cc2cnc(Nc3cnn(CC(C)(C)O)c3)nc2CN1C(=O)[C@H]1CCN(C)C[C@@H]1c1ccccc1 [Compound 74],CDK7 (20 nM) pIC50,7.72
C[C@@H]1Cc2cnc(Nc3ccnn3C)nc2CN1C(=O)[C@H]1CCN(C)C[C@@H]1c1ccccc1 [Compound 79],CDK7 (20 nM) pIC50,7.37
C[C@H]1Cc2cnc(NCc3ccn(C)n3)cc2CN1C(=O)[C@H]1CCN(C)C[C@@H]1c1ccccc1 (relative stereo) [Compound 174],IC50,11.2 nM
C[C@@H]1Cc2cnc(Nc3ccnc(C(F)F)c3)nc2CN1C(=O)[C@H]1CCN(C)C[C@@H]1c1ccccc1 [Compound 75],CDK7 (20 nM) pIC50,7.46
C[C@@H]1Cc2cnc(N[C@H](C)c3ccccc3)nc2CN1C(=O)[C@H]1CCN(C)C[C@@H]1c1ccccc1 [Compound 22],CDK7 (20 nM) pIC50,8.01
C[C@@H]1Cc2cnc(NCc3ccn(C)n3)nc2CN1C(=O)[C@H]1CCN(C)C[C@@H]1c1ccccc1 [Compound 1],CDK7 (20 nM) pIC50,8.01
C[C@@H]1Cc2cnc(NC3CCC(OCC4CC4)CC3)nc2CN1C(=O)[C@H]1CCN(C)C[C@@H]1c1ccccc1 (stereo partly drawn) [Compound 3],CDK7 (20 nM) pIC50,>8.01
